Holding throughout (test): In vitro antiproliferative activity, resazurin cell viability
Common to all, as to assay type: cell-based
On the technique in general: The colour change of resazurin is a common sign of viable cells or microbes.

One assay has as its system MDA-MB-231. The settings on record: Homo sapiens, triple-negative breast cancer, 72 h of treatment, mean ± SEM. Here is the method: (§1) To test the newly synthesized compounds, various human cell lines were employed. HD‐MB03 cells were purchased from DSMZ (Braunschweig, Germany), while A549, MDA‐MB‐231, RPMI‐8420, SU‐DHL‐8, TOLEDO, VL51, SU‐DHL‐1, SU‐DHL‐18, and KM‐H2 were obtained from ATCC (Manassas, VA, USA). Cells were cultured in DMEM (for MDA‐MB‐231 and A549) or RPMI‐1640 (for RPMI‐8420, SU‐DHL‐8, TOLEDO, VL51, SU‐DHL‐1, SU‐DHL‐18, KM‐H2, and HD‐MB03) media (Gibco, Milan, Italy). Both media were supplemented with 115 units/mL penicillin G (Gibco, Milan, Italy), 115 µg/mL streptomycin (Invitrogen, Milan, Italy), and 10% fetal bovine serum (Invitrogen, Milan, Italy). Peripheral blood mononuclear cells (PBMCs) were isolated from healthy donors as previously described. For cytotoxicity assays, PBMCs were resuspended at 5 × 10⁵ cells/mL in complete RPMI medium with or without 2.5 µg/mL phytohemagglutinin (PHA) (Irvine Scientific) to stimulate T‐cell activation and proliferation. All cell lines were maintained at 37°C in a humidified atmosphere containing 5% CO₂. All compounds were dissolved in DMSO at a 10 mM stock concentration. For dose–response assays, cells were seeded in 96‐well plates at densities optimized for each cell line: HD‐MB03 at 10,000 cells/well, A549 at 4000 cells/well, and MDA‐MB‐231 at 7000 cells/well. All other cell lines were seeded at 20,000 cells/well in a final volume of 100 µL per well. After 24 h, cells were treated with a 6‐point serial dilution of compounds starting from 10 µM, in triplicate for statistical analysis. Seventy‐2 h posttreatment, 10 µL of resazurin solution (100 µg/mL) was added to each well, and cells were incubated for an additional 3–6 h. Fluorescence was measured using a Spark 10 M microplate reader (Tecan Group Ltd., Männedorf, Switzerland) with excitation at 535 nm and emission at 600 nm. The IC₅₀ was defined as the concentration of compound required to inhibit cell proliferation by 50% compared to cells treated with the highest DMSO concentration.
(§2) To test the newly synthesized compounds, various human cell lines were employed. HD-MB03 cells were purchased from DSMZ (Braunschweig, Germany), while A549, MDA-MB-231, RPMI-8420, SU-DHL-8, TOLEDO, VL51, SU-DHL-1, SU-DHL-18, and KM-H2 were obtained from ATCC (Manassas, VA, USA). Cells were cultured in DMEM (for MDA-MB-231 and A549) or RPMI-1640 (for RPMI-8420, SU-DHL-8, TOLEDO, VL51, SU-DHL-1, SU-DHL-18, KM-H2, and HD-MB03) media (Gibco, Milan, Italy). Both media were supplemented with 115 units/mL penicillin G (Gibco, Milan, Italy), 115 µg/mL streptomycin (Invitrogen, Milan, Italy), and 10% fetal bovine serum (Invitrogen, Milan, Italy). Peripheral blood mononuclear cells (PBMCs) were isolated from healthy donors as previously described. ^[1] For cytotoxicity assays, PBMCs were resuspended at 5 × 10⁵ cells/mL in complete RPMI medium with or without 2.5 µg/mL phytohemagglutinin (PHA) (Irvine Scientific) to stimulate T cell activation and proliferation. All cell lines were maintained at 37 °C in a humidified atmosphere containing 5% CO₂. All compounds were dissolved in DMSO at a 10 mM stock concentration. For dose–response assays, cells were seeded in 96-well plates at densities optimized for each cell line: HD-MB03 at 10,000 cells/well, A549 at 4,000 cells/well, and MDA-MB-231 at 7,000 cells/well. All other cell lines were seeded at 20,000 cells/well in a final volume of 100 µL per well. After 24 hours, cells were treated with a 6-point serial dilution of compounds starting from 10 µM, in triplicate for statistical analysis. Seventy-two hours post-treatment, 10 µL of resazurin solution (100 µg/mL) was added to each well, and cells were incubated for an additional 3–6 hours. Fluorescence was measured using a Spark 10M microplate reader (Tecan Group Ltd., Männedorf, Switzerland) with excitation at 535 nm and emission at 600 nm. […]

In a further assay the test system is HD-MB03. The settings on record: Homo sapiens, medulloblastoma cells, 72 h of treatment, mean ± SEM, at least three experiments. The procedure:
as §1, §2

The test system of a further assay is SU-DHL-8. The settings on record: Homo sapiens, B lymphocyte, large cell lymphoma, 72 h of treatment, mean ± SEM. Here is the method:
as §1, §2

In a further assay the test system is RPMI-8402. To be noted: Homo sapiens, T-lymphoblastic leukemia cells, 72 h of treatment, mean ± SEM. Here is the method:
as §1, §2

Another assay relates to A549. The settings on record: Homo sapiens, non-small cell lung cancer, 72 h of treatment, mean ± SEM. The procedure:
as §1, §2

The structures appear in SMILES notation. A value given as a limit tells only on which side of the number the result lay.

For the compound `O=C(Nc1ccc(C(F)(F)F)cc1)c1cc(/C=C/c2ccccc2[N+](=O)[O-])nc2ccccc12` [4ac, (E)-2-(2-nitrostyryl)-N-(4-(trifluoromethyl)phenyl)quinoline-4-carboxamide], the half-inhibitory concentration (IC50) in the assay with MDA-MB-231, in the assay on HD-MB03, in the assay with SU-DHL-8, with RPMI-8402 and with A549 was above 10 µM in each case.
For `COc1cc(NC(=O)c2cc(/C=C/c3ccccc3)nc3ccccc23)cc(OC)c1OC` [4e, (E)-2-styryl-N-(3,4,5-trimethoxyphenyl)quinoline-4-carboxamide], the IC50 in the assay with MDA-MB-231 was above 10 µM; with HD-MB03 it was 7.1 ± 1.15 µM; with SU-DHL-8, 6.61 ± 0.76 µM; in the assay with RPMI-8402 it was above 10 µM; with A549 it was above 10 µM.
Regarding `O=C(Nc1ccc(Cl)cc1)c1cc(/C=C/c2ccc(Cl)c(Cl)c2)nc2ccccc12` [4ag, (E)-N-(4-chlorophenyl)-2-(3,4-dichlorostyryl)quinoline-4-carboxamide], the IC50 came out at 5.52 ± 0.22 µM in the assay with MDA-MB-231; 6.93 ± 0.06 µM in the assay with HD-MB03; 3.49 ± 0.11 µM with SU-DHL-8; 6.42 ± 0.43 µM in the assay with RPMI-8402; 7.71 ± 0.56 µM with A549.
As to `COc1cc(/C=C/c2cc(C(=O)Nc3ccc([N+](=O)[O-])c(C(F)(F)F)c3)c3ccccc3n2)cc(OC)c1OC` [4t, (E)-N-(4-nitro-3-(trifluoromethyl)phenyl)-2-(3,4,5-trimethoxystyryl)quinoline-4-carboxamide], the IC50 in the assay on MDA-MB-231, in the assay with HD-MB03, in the assay with SU-DHL-8, in the assay on RPMI-8402 and in the assay with A549 was above 10 µM in each case.
Turning to `Cc1cccc(NC(=O)c2cc(/C=C/c3ccccc3)nc3ccccc23)c1` [4b, (E)-2-styryl-N-(m-tolyl)quinoline-4-carboxamide], the IC50 is above 10 µM in the assay on MDA-MB-231; above 10 µM in the assay on HD-MB03; 5.05 ± 0.58 µM in the assay with SU-DHL-8; above 10 µM with RPMI-8402; above 10 µM in the assay on A549.
For `O=C(Nc1ccc(C(F)(F)F)cc1)c1cc(/C=C/c2ccc(Br)cc2)nc2ccccc12` [4aa, (E)-2-(4-bromostyryl)-N-(4-(trifluoromethyl)phenyl)quinoline-4-carboxamide], the 50% inhibitory concentration (IC50) in the assay on MDA-MB-231, in the assay on HD-MB03, with SU-DHL-8, in the assay with RPMI-8402 and in the assay with A549 was above 10 µM throughout.
Consider `COc1cc(/C=C/c2cc(C(=O)Nc3ccc(C(F)(F)F)cc3)c3ccccc3n2)cc(OC)c1OC` [4r, (E)-N-(4-(trifluoromethyl)phenyl)-2-(3,4,5-trimethoxystyryl)quinoline-4-carboxamide], for which the IC50 in the assay on MDA-MB-231 is above 10 µM; in the assay on HD-MB03, above 10 µM; with SU-DHL-8 it was 2.13 ± 0.08 µM; in the assay on RPMI-8402, above 10 µM; in the assay on A549, above 10 µM.
On to `O=C(Nc1cccc(Cl)c1)c1cc(/C=C/c2ccccc2)nc2ccccc12` [4f, (E)-N-(3-chlorophenyl)-2-styrylquinoline-4-carboxamide], for which the 50% inhibitory concentration (IC50) in the assay with MDA-MB-231 is above 10 µM; with HD-MB03, above 10 µM; in the assay with SU-DHL-8, 8.27 ± 0.72 µM; with RPMI-8402, above 10 µM; with A549 it was above 10 µM.
Turning to `COc1ccc(/C=C/c2cc(C(=O)Nc3ccc([N+](=O)[O-])c(C(F)(F)F)c3)c3ccccc3n2)cc1` [4v, (E)-2-(4-methoxystyryl)-N-(4-nitro-3-(trifluoromethyl)phenyl)quinoline-4-carboxamide], the half-maximal inhibitory concentration (IC50) in the assay on MDA-MB-231, in the assay with HD-MB03, in the assay with SU-DHL-8, with RPMI-8402 and in the assay with A549 was above 10 µM throughout.
In the case of `Cc1ccc(NC(=O)c2cc(/C=C/c3ccccc3)nc3ccccc23)cc1` [4c, (E)-2-styryl-N-(p-tolyl)quinoline-4-carboxamide], the IC50 in the assay with MDA-MB-231, in the assay on HD-MB03, in the assay with SU-DHL-8, in the assay with RPMI-8402 and with A549 was above 10 µM throughout.
On to `Cc1cccc(C)c1NC(=O)c1cc(/C=C/c2ccccc2)nc2ccccc12` [4d, (E)-N-(2,6-dimethylphenyl)-2-styrylquinoline-4-carboxamide], for which the IC50 in the assay on MDA-MB-231 was 5.6 ± 0.79 µM; in the assay on HD-MB03, above 10 µM; in the assay on SU-DHL-8, 6.53 ± 1.49 µM; in the assay with RPMI-8402, above 10 µM; in the assay on A549, above 10 µM.
In the case of `COc1cc(/C=C/c2cc(C(=O)Nc3cc(OC)c(OC)c(OC)c3)c3ccccc3n2)cc(OC)c1OC` [4o, (E)-N-(3,4,5-trimethoxyphenyl)-2-(3,4,5-trimethoxystyryl)quinoline-4-carboxamide], the IC50 in the assay on MDA-MB-231 is 5.95 ± 0.89 µM; in the assay with HD-MB03 it was above 10 µM; in the assay with SU-DHL-8 it was 2.09 ± 0.14 µM; with RPMI-8402, 4.55 ± 0.42 µM; with A549, above 10 µM.
Turning to `COc1cc(/C=C/c2cc(C(=O)Nc3ccc(C)cc3)c3ccccc3n2)cc(OC)c1OC` [4m, (E)-N-(p-tolyl)-2-(3,4,5-trimethoxystyryl)quinoline-4-carboxamide], the IC50 in the assay with MDA-MB-231, with HD-MB03, with SU-DHL-8, in the assay with RPMI-8402 and in the assay on A549 was above 10 µM in each case.
For the compound `COc1cc(/C=C/c2cc(C(=O)Nc3ccc(Cl)cc3)c3ccccc3n2)cc(OC)c1OC` [4q, (E)-N-(4-chlorophenyl)-2-(3,4,5-trimethoxystyryl)quinoline-4-carboxamide], the half-maximal inhibitory concentration (IC50) is above 10 µM with MDA-MB-231; above 10 µM in the assay with HD-MB03; 4.61 ± 0.84 µM with SU-DHL-8; above 10 µM in the assay on RPMI-8402; above 10 µM in the assay on A549.
As to `COc1cc(/C=C/c2cc(C(=O)Nc3cccc(C)c3)c3ccccc3n2)cc(OC)c1OC` [4l, (E)-N-(m-tolyl)-2-(3,4,5-trimethoxystyryl)quinoline-4-carboxamide], the concentration for half-maximal inhibition (IC50) is 5.95 ± 0.66 µM with MDA-MB-231; above 10 µM in the assay on HD-MB03; 2.94 ± 0.08 µM with SU-DHL-8; 3.75 ± 0.18 µM in the assay on RPMI-8402; 9.34 ± 0.18 µM in the assay with A549.
As to `O=C(Nc1ccc(Cl)cc1)c1cc(/C=C/c2ccccc2)nc2ccccc12` [4g, (E)-N-(4-chlorophenyl)-2-styrylquinoline-4-carboxamide], the IC50 in the assay with MDA-MB-231 was above 10 µM; with HD-MB03, above 10 µM; in the assay on SU-DHL-8 it was 7.8 ± 1.3 µM; in the assay on RPMI-8402 it was 6.31 ± 0.36 µM; with A549, above 10 µM.
Consider `Cc1cccc(/C=C/c2cc(C(=O)Nc3ccc([N+](=O)[O-])c(C(F)(F)F)c3)c3ccccc3n2)c1` [4u, (E)-2-(3-methylstyryl)-N-(4-nitro-3-(trifluoromethyl)phenyl)quinoline-4-carboxamide], for which the IC50 with MDA-MB-231, in the assay on HD-MB03, in the assay with SU-DHL-8, in the assay with RPMI-8402 and with A549 was above 10 µM throughout.

As usually defined, the IC50 is the concentration that inhibits the measured activity by half. Lower therefore signals higher potency.

These data come from article PMC12645083, “Microwave‐Enhanced Synthesis of 2‐Styrylquinoline‐4‐Carboxamides With Promising Anti‐Lymphoma Activity” (Archiv Der Pharmazie, 2025).
